The text below walks through data of patent publication US20120039954A1, “METHOD OF TREATING INSOMNIA” (SOMNUS THERAPEUTICS, INC., priority 2008, published 2012).

The nature of this data set: Drug plasma levels in the Example 9 trial. Conditions: 10 mg single oral dose.

From the text: Non-elderly adults were enrolled in a cross-over, double-blind trial. […] Drug plasma levels were obtained at the same times.

For the compound `CCN(C(C)=O)c1cccc(-c2ccnc3c(C#N)cnn23)c1` [zaleplon, N-[3-(3-cyanopyrazole[1,5-a]pyrimidin-7-yl)phenyl]-N-ethylacetamide], the “Time post-dose at which drug plasma levels peaked” value was determined as 1.5 h.
